For 35 compounds, IC50 results are on record in patent publication US20120264735A1 (priority 2009, published 2012).

The target in this assay is T1, c-Met kinase (recombinant c-Met) (Homo sapiens, UniProt P08581).
T1 construct: 0.27 nM recombinant c-Met
T1 sequence (P08581 25-1390): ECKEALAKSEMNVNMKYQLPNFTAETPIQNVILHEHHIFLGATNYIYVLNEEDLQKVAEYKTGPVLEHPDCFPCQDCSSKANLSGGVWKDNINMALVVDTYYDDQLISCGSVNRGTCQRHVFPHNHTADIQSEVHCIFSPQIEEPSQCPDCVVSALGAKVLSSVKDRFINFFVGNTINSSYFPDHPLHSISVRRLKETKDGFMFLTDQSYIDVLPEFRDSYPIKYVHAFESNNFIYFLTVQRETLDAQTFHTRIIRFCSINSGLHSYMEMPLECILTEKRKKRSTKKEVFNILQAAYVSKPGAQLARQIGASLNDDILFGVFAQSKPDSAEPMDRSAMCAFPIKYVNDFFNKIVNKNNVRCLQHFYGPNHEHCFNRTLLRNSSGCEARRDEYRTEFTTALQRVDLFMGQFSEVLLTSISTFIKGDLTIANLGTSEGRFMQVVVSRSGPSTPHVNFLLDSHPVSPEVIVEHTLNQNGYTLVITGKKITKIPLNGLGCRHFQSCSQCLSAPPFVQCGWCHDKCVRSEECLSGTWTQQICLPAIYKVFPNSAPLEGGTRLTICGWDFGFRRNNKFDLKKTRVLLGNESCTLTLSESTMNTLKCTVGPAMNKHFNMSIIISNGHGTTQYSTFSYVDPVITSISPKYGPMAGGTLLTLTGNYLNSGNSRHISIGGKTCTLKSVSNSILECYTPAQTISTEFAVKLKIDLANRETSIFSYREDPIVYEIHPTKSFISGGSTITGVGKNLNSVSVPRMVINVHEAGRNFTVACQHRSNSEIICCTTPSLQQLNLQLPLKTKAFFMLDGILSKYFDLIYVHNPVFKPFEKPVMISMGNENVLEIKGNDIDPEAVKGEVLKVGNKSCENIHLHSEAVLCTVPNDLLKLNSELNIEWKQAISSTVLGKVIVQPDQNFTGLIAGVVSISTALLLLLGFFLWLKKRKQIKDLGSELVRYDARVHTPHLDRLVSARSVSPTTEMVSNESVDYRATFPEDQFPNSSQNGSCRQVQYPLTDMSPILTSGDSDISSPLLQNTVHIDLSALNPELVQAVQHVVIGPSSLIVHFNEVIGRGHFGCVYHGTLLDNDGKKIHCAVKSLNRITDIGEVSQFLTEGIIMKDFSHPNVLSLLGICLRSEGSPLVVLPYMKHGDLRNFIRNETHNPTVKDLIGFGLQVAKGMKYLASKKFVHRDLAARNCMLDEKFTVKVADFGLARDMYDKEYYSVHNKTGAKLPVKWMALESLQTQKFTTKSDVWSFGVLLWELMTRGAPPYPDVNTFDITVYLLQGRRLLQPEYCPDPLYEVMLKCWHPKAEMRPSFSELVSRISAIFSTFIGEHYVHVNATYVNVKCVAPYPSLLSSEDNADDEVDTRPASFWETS
The assay can be described thus: In vitro kinase assay I (homogeneous time-resolved fluorescence tyrosine kinase assay). Format: biochemical. The procedure, abridged:
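Biotinylated peptide (0.5 μM) phosphorylated by 0.2 nM recombinant c-Met with 50 μM MgATP, 60 min at room temperature, pH 7.4, 5% DMSO. EDTA stop; HTRF read with Eu-anti-phosphotyrosine antibody and streptavidin-APC. IC50 from 4-parameter logistic fit.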
By IC50 is commonly meant the point on the concentration scale where inhibition reaches its midpoint. As to `CCOC(=O)Nc1cccc(Cc2nn(-c3cccc(C#N)c3)ccc2=O)c1` [Example 135, ethyl (3-{[1-(3-cyanophenyl)-4-oxo-1,4-dihydropyridazin-3-yl]methyl}phenyl)carbamate], the IC50 is under 0.1 µM.

With `CCOc1cnc(-c2cccc(Cc3nn(-c4cncc(C#N)c4)ccc3=O)c2)nc1` [Example 136, 5-{3-[3-(5-ethoxypyrimidin-2-yl)benzyl]-4-oxopyridazin-1(4H)-yl}pyridine-3-carbonitrile], the IC50 is under 0.1 µM.

On to `CCOc1cnc(-c2cccc(Cc3nn(-c4ccc(C#N)cc4)ccc3=O)c2)nc1` [Example 137, 4-{3-[3-(5-ethoxypyrimidin-2-yl)benzyl]-4-oxopyridazin-1(4H)-yl}benzonitrile], for which the IC50 was under 0.1 µM.

Regarding `COCCOc1cnc(-c2cccc(Cc3nn(-c4ccc(C#N)cc4)ccc3=O)c2)nc1` [Example 138, 4-[3-{3-[5-(2-methoxyethoxy)pyrimidin-2-yl]benzyl}-4-oxopyridazin-1(4H)-yl]benzonitrile], the IC50 is under 0.1 µM.

Take `CCOc1cnc(-c2cccc(Cc3nn(-c4cc(Cl)cc(C#N)c4)ccc3=O)c2)nc1` [Example 140, 3-chloro-5-{3-[3-(5-ethoxypyrimidin-2-yl)benzyl]-4-oxopyridazin-1(4H)-yl}benzonitrile]: the IC50 was under 0.1 µM.

`COc1ccnc2ccc(Cc3nn(-c4cnn(C)c4)ccc3=O)cc12` [Example 142, 3-[(4-methoxyquinolin-6-yl)methyl]-1-(1-methyl-1H-pyrazol-4-yl)pyridazin-4(1H)-one]: the IC50 fell in the range of 0.1 to 1 µM.

As for `CCOc1cnc(-c2cccc(Cc3nn(-c4cccc(Br)c4)ccc3=O)c2)nc1` [Example 143, 1-(3-bromophenyl)-3-[3-(5-ethoxypyrimidin-2-yl)benzyl]pyridazin-4(1H)-one], the IC50 is under 0.1 µM.

With `COCCOc1cnc(-c2cccc(Cc3nn(-c4ccc(C#N)c(F)c4)ccc3=O)c2)nc1` [Example 144, 2-fluoro-4-[3-{3-[5-(2-methoxyethoxy)pyrimidin-2-yl]benzyl}-4-oxopyridazin-1(4H)-yl]benzonitrile], the IC50 is under 0.1 µM.

As for `CCOc1cnc(-c2cccc(Cc3nn(-c4ccc(Br)c(F)c4)ccc3=O)c2)nc1` [Example 145, 1-(4-Bromo-3-fluorophenyl)-3-[3-(5-ethoxypyrimidin-2-yl)benzyl]pyridazin-4(1H)-one], the IC50 is under 0.1 µM.

Regarding `CCOc1cnc(-c2cccc(Cc3nn(-c4cc(F)cc(F)c4)ccc3=O)c2)nc1` [Example 146, 1-(3,5-difluorophenyl)-3-[3-(5-ethoxypyrimidin-2-yl)benzyl]pyridazin-4(1H)-one], the half-maximal inhibitory concentration (IC50) was under 0.1 µM.

Regarding `CCOc1cnc(-c2cccc(Cc3nn(-c4cc(F)c(Br)c(F)c4)ccc3=O)c2)nc1` [Example 147, 1-(4-bromo-3,5-difluorophenyl)-3-[3-(5-ethoxypyrimidin-2-yl)benzyl]pyridazin-4(1H)-one], the IC50 is under 0.1 µM.

Turning to `CCOc1cnc(-c2cccc(Cc3nn(-c4ccc(C#N)c(F)c4)ccc3=O)c2)nc1` [Example 148, 4-{3-[3-(5-ethoxypyrimidin-2-yl)benzyl]-4-oxopyridazin-1(4H)-yl}-2-fluorobenzonitrile], the IC50 is under 0.1 µM.

`COCCOc1cnc(-c2cccc(Cc3nn(-c4cc(F)cc(F)c4)ccc3=O)c2)nc1` [Example 149, 1-(3,5-difluorophenyl)-3-{3-[5-(2-methoxyethoxy)pyrimidin-2-yl]benzyl}pyridazin-4(1H)-one]: the IC50 is under 0.1 µM.

Regarding `CCOc1cnc(-c2cccc(Cc3nn(-c4cnn(CC)c4)ccc3=O)c2)nc1` [Example 150, 3-[3-(5-ethoxypyrimidin-2-yl)benzyl]-1-(1-ethyl-1H-pyrazol-4-yl)pyridazin-4(1H)-one], the IC50 was under 0.1 µM.

Turning to `CCn1cc(-n2ccc(=O)c(Cc3cccc(-c4ncc(OCCOC)cn4)c3)n2)cn1` [Example 151, 1-(1-ethyl-1H-pyrazol-4-yl)-3-{3-[5-(2-methoxyethoxy)pyrimidin-2-yl]benzyl}pyridazin-4(1H)-one], the IC50 is under 0.1 µM.

`CCOc1cnc(-c2cccc(Cc3nn(-c4ccc(Cl)c(F)c4)ccc3=O)c2)nc1` [Example 152, 1-(4-chloro-3-fluorophenyl)-3-[3-(5-ethoxypyrimidin-2-yl)benzyl]pyridazin-4(1H)-one]: the concentration for half-maximal inhibition (IC50) was under 0.1 µM.

`COCCOc1cnc(-c2cccc(Cc3nn(-c4ccc(Cl)c(F)c4)ccc3=O)c2)nc1` [Example 153, 1-(4-chloro-3-fluorophenyl)-3-{3-[5-(2-methoxyethoxy)pyrimidin-2-yl]benzyl}pyridazin-4(1H)-one]: the IC50 is under 0.1 µM.

As to `Cn1cc(-c2cnc(-c3cccc(Cc4nn(-c5cnn(C)c5)ccc4=O)c3)nc2)cn1` [Example 154, 1-(1-methyl-1H-pyrazol-4-yl)-3-{3-[5-(1-methyl-1H-pyrazol-4-yl)pyrimidin-2-yl]benzyl}pyridazin-4(1H)-one], the IC50 is under 0.1 µM.

`Cn1cc(-c2cnc(-c3cccc(Cc4nn(-c5cc(F)cc(C#N)c5)ccc4=O)c3)nc2)cn1` [Example 155, 3-fluoro-5-[3-{3-[5-(1-methyl-1H-pyrazol-4-yl)pyrimidin-2-yl]benzyl}-4-oxopyridazin-1(4H)-yl]benzonitrile]: the IC50 is under 0.1 µM.

Consider `Cn1cc(-c2cnc(-c3cccc(Cc4nn(-c5ccc(F)c(F)c5)ccc4=O)c3)nc2)cn1` [Example 156, 1-(3,4-difluorophenyl)-3-{3-[5-(1-methyl-1H-pyrazol-4-yl)pyrimidin-2-yl]benzyl}pyridazin-4(1H)-one], for which the IC50 is under 0.1 µM.

As to `CCn1cc(-n2ccc(=O)c(Cc3cccc(-c4ncc(-c5cnn(C)c5)cn4)c3)n2)cn1` [Example 157, 1-(1-ethyl-1H-pyrazol-4-yl)-3-{3-[5-(1-methyl-1H-pyrazol-4-yl)pyrimidin-2-yl]benzyl}pyridazin-4(1H)-one], the IC50 is under 0.1 µM.

In the case of `Cn1cc(-c2cnc(-c3cccc(Cc4nn(-c5cc(Cl)cc(C#N)c5)ccc4=O)c3)nc2)cn1` [Example 158, 3-chloro-5-[3-{3-[5-(1-methyl-1H-pyrazol-4-yl)pyrimidin-2-yl]benzyl}-4-oxopyridazin-1(4H)-yl]benzonitrile], the IC50 is under 0.1 µM.

Take `Cn1cc(-n2ccc(=O)c(Cc3cccc(-c4ncc(NC(=O)OC(C)(C)C)cn4)c3)n2)cn1` [Example 159, tert-butyl [2-(3-{[1-(1-methyl-1H-pyrazol-4-yl)-4-oxo-1,4-dihydropyridazin-3-yl]methyl}phenyl)pyrimidin-5-yl]carbamate]: the IC50 was under 0.1 µM.

With `CCOc1cnc2ccc(Cc3nn(-c4cnn(CC)c4)ccc3=O)cc2c1` [Example 160, 3-[(3-ethoxyquinolin-6-yl)methyl]-1-(1-ethyl-1H-pyrazol-4-yl)pyridazin-4(1H)-one], the IC50 lay in the range of 0.1 to 1 µM.

Turning to `COCc1cnc(-c2cccc(Cc3nn(-c4cnn(C)c4)ccc3=O)c2)nc1` [Example 161, 3-{3-[5-(methoxymethyl)pyrimidin-2-yl]benzyl}-1-(1-methyl-1H-pyrazol-4-yl)pyridazin-4(1H)-one], the IC50 was under 0.1 µM.

Consider `CCOCc1cnc(-c2cccc(Cc3nn(-c4cnn(C)c4)ccc3=O)c2)nc1` [Example 162, 3-{3-[5-(ethoxymethyl)pyrimidin-2-yl]benzyl}-1-(1-methyl-1H-pyrazol-4-yl)pyridazin-4(1H)-one], for which the IC50 was under 0.1 µM.

With `CCn1cc(-n2ccc(=O)c(Cc3cccc(-c4ncc(COC)cn4)c3)n2)cn1` [Example 163, 1-(1-ethyl-1H-pyrazol-4-yl)-3-{3-[5-(methoxymethyl)pyrimidin-2-yl]benzyl}pyridazin-4(1H)-one], the IC50 is under 0.1 µM.

For `Cn1cc(-n2ccc(=O)c(Cc3cccc(-c4ncc(OC5COC5)cn4)c3)n2)cn1` [Example 164, 1-(1-methyl-1H-pyrazol-4-yl)-3-{3-[5-(oxetan-3-yloxy)pyrimidin-2-yl]benzyl}pyridazin-4(1H)-one], the IC50 is under 0.1 µM.

In the case of `CCn1cc(-n2ccc(=O)c(Cc3cccc(-c4ncc(OC5COC5)cn4)c3)n2)cn1` [Example 165, 1-(1-ethyl-1H-pyrazol-4-yl)-3-{3-[5-(oxetan-3-yloxy)pyrimidin-2-yl]benzyl}pyridazin-4(1H)-one], the IC50 was under 0.1 µM.

On to `Cn1cc(-n2ccc(=O)c(Cc3cccc(-c4ncc(C(C)(C)O)cn4)c3)n2)cn1` [Example 167, 3-{3-[5-(1-hydroxy-1-methylethyl)pyrimidin-2-yl]benzyl}-1-(1-methyl-1H-pyrazol-4-yl)pyridazin-4(1H)-one], for which the IC50 is under 0.1 µM.

As for `COC(C)(C)c1cnc(-c2cccc(Cc3nn(-c4cnn(C)c4)ccc3=O)c2)nc1` [Example 168, 3-{3-[5-(1-methoxy-1-methylethyl)pyrimidin-2-yl]benzyl}-1-(1-methyl-1H-pyrazol-4-yl)pyridazin-4(1H)-one], the IC50 was in the range of 0.1 to 1 µM.

Consider `CCOC(C)(C)c1cnc(-c2cccc(Cc3nn(-c4cnn(C)c4)ccc3=O)c2)nc1` [Example 169, 3-{3-[5-(1-ethoxy-1-methylethyl)pyrimidin-2-yl]benzyl}-1-(1-methyl-1H-pyrazol-4-yl)pyridazin-4(1H)-one], for which the IC50 lay in the range of 0.1 to 1 µM.

On to `CN1CCC(COc2cnc(-c3cccc(Cc4nn(-c5cc(F)cc(C#N)c5)ccc4=O)c3)nc2)CC1` [Example 170, 3-fluoro-5-[3-(3-{5-[(1-methylpiperidin-4-yl)methoxy]pyrimidin-2-yl}benzyl)-4-oxopyridazin-1(4H)-yl]benzonitrile], for which the IC50 was under 0.1 µM.

`CN1CCC(COc2cnc(-c3cccc(Cc4nn(-c5cccc(C#N)c5)ccc4=O)c3)nc2)CC1` [Example 171, 3-[3-(3-{5-[(1-methylpiperidin-4-yl)methoxy]pyrimidin-2-yl}benzyl)-4-oxopyridazin-1(4H)-yl]benzonitrile]: the IC50 is under 0.1 µM.

For `CCn1cc(-n2ccc(=O)c(Cc3cccc(-c4ncc(OCC5CCN(C)CC5)cn4)c3)n2)cn1` [Example 172, 1-(1-ethyl-1H-pyrazol-4-yl)-3-(3-{5-[(1-methylpiperidin-4-yl)methoxy]pyrimidin-2-yl}benzyl)pyridazin-4(1H)-one], the IC50 is under 0.1 µM.
